Measurements taken from patent US11464768B2, “Pimavanserin alone or in combination for use in the treatment of Alzheimer's disease psychosis” (ACADIA Pharmaceuticals Inc., priority 2016, dated 2022).

How the values were obtained:
ADP patients [1] = assay: Same twelve-week study: cognitive status by Mini-Mental State Examination (MMSE); format: in vivo, human; settings: 34 mg once daily; 12 week study
Procedure: In some embodiments the effect of the treatment is an antipsychotic effect, for example determined by an improved patient score in the Neuropsychiatric Inventory-Nursing Home Version (NPI-NH) psychosis scale, without impairing cognition, as determined by Mini-Mental State Examiner (MMSE) score. In some embodiment the antipsychotic effect without impairing cognition is determined over the 12 weeks of treatment. The MMSE is a brief 30-point questionnaire that is used to quantitatively assess cognition (Folstein et al., Journal of Psychiatric Research. 12 (3): 189-98, 1975). The MMSE test includes simple questions and problems in a number of areas: the time and place of the test, repeating lists of words, arithmetic, language use and comprehension, and copying a drawing. […]
Each patient participated in a 3-week screening period, a 12-week double-blind treatment period, and a 4-week follow-up period. […] The safety of subjects was assessed by monitoring adverse events, physical examinations, vital signs, clinical laboratory tests (hematology, clinical chemistry, and urinalysis), and electrocardiograms. Furthermore cognitive status was assessed via MMSE.

ADP patients [2] = assay: Twelve-week randomized, double-blind, placebo-controlled study in ADP patients: NPI-NH psychosis score (Domains A and B); format: in vivo, human; settings: for improvement in psychosis at day 43 / improvement in psychosis at day 43 (NPI-NH Psychosis subscale): Table 2 Delta; for NPI-NH PSYCHOSIS SCORE at day 43, Effect Size: pimavanserin vs placebo
From the text: To determine the score for a given domain, the caregivers rate frequency and severity of the resident's behavior for that particular domain. The frequency is rated on a 0-4 point scale. For example, the frequency is rated as a) 0 for not present; b) 1 for occasional; c) 2 for often; d) 3 for frequent; and e) 4 for very frequent occurrence of the behavior in question. The severity is rated on a 1-3 point scale. For example, the severity is rated as a) 1 for mild; b) 2 for moderate; and 3 for severe. The score of each domain is determined by multiplying the frequency rating score by the severity rating score. The score of each domain ranges from 0 to 12.
A psychosis score on the psychosis subscale is the total score of the score of delusions (Domain A) and hallucinations (Domain B). For example, when the delusions score (Domain A) is 4 and the hallucinations score (Domain B) is 6, the psychosis score is 10. The psychosis score typically ranges from 0 to 24.
A twelve-week, randomized, double-blind, placebo-controlled, single-center study was conducted in ADP patients in nursing homes. A purpose of the study was to evaluate the safety and efficacy of 34 mg pimavanserin compared to placebo in the treatment of ADP.
A total of 181 nursing home patients were enrolled in the study and randomized on a one-to-one basis to receive either 34 mg of pimavanserin or placebo once daily for twelve weeks, following a three-week screening period including brief psycho-social therapy. Patients with Alzheimer's disease (AD) are defined by the National Institute of Neurological and Communicative Disorders and Stroke-Alzheimer's Disease and Related Disorder Association (NINCDS-ADRDA) criteria for possible or probable AD (McKhann et al., Neuro., 1984, vol. 34, 939-944.) The mean age of patients in the study was 86 years.
After completing initial Screening Visit procedures (SV1), patients entered a 3-week screening period with antipsychotic medication washout. During the screening period, the patients received brief psychosocial therapy (BPST; Ballard et al., 2009) following best practice guidelines and safety assessments were performed. After the first Screening Visit (SV1), there were two additional contacts at weekly intervals with the BPST caregiver by phone (SV2 and SV3) to support the patient and the BPST caregiver in this screening phase. Safety assessments were also collected during this phase. At the discretion of the investigator and upon consultation with the Medical Monitor, patients were randomized into the double-blind phase of the study at any time during the screening period if there is a substantial worsening of psychotic symptoms.
Patients were randomized to one of two treatment groups in a 1:1 ratio (pimavanserin 34 mg or placebo), stratified by Baseline Mini-Mental State Examination (MMSE) total score and Neuropsychiatric Inventory-Nursing Home Version (NPI-NH) psychosis score (Domains A and B) (4 levels: MMSE<6 and NPI-NH<12, MMSE>6 and NPI-NH<12, MMSE<6 and NPI-NH>12, MMSE>6 and NPI-NH>12), and entered a 12 week double-blind treatment period.
Nursing home staff administered the study drug to the patient each morning as a single oral dose (2×17 mg tablets) beginning within 24 hours of completion of all baseline assessments (Day 1). During the double-blind treatment period, study visits were performed as follows: Baseline, Day 15, Day 29, Day 43, Day 64, and Day 85 (or early termination). A follow-up telephone safety visit occurred 4 weeks after the last dose of study medication. The NPI-NH psychosis subscale (Delusions+Hallucinations domains) was used to assess psychosis. Behavioral symptoms were assessed using the NPI-NH Total and Individual Behavioral Domain scores and the Cohen-Mansfield Agitation Inventory—Short Form (CMAI-SF). […]

Compound: CC(C)COc1ccc(CNC(=O)N(Cc2ccc(F)cc2)C2CCN(C)CC2)cc1 [Pimavanserin, N-(1-methylpiperidin-4-yl)-N-(4-fluorophenylmethyl)-N′-(4-(2-methylpropyloxy)phenylmethyl)carbamide]
- cognition as measured by the Mini-Mental State Examination (MMSE) score (ADP patients [1]): did not impair cognition
- durability of efficacy (ADP patients [2]; 34 mg once daily, 12 week study): demonstrated an efficacy throughout the 12 week study
- NPI-NH PSYCHOSIS SCORE at day 43, Pimavanserin Group (change from baseline) (ADP patients [2]; 34 mg once daily, subgroup Baseline Agitation/Aggression Score <6 (n = 85), post-hoc analysis): −1.40
- NPI-NH PSYCHOSIS SCORE at day 43, Pimavanserin Group (change from baseline) (ADP patients [2]; 34 mg once daily, subgroup Baseline Agitation/Aggression Score ≥6 (n = 93), post-hoc analysis): −6.09
- NPI-NH PSYCHOSIS SCORE at day 43, Pimavanserin Group (change from baseline) (ADP patients [2]; 34 mg once daily, subgroup Baseline NPI-NH Psychosis Score <12 (n = 57), negative = improvement): −0.58
- NPI-NH PSYCHOSIS SCORE at day 43, Pimavanserin Group (change from baseline) (ADP patients [2]; 34 mg once daily, subgroup Baseline NPI-NH Psychosis Score ≥12 & Agitation/Aggression Score ≥6 (n = 38), post-hoc analysis): −10.93
- NPI-NH PSYCHOSIS SCORE at day 43, Pimavanserin Group (change from baseline) (ADP patients [2]; 34 mg once daily, subgroup Baseline NPI-NH Psychosis score ≥12 (n = 121), negative = improvement): −10.15
- NPI-NH PSYCHOSIS SCORE at day 43, Pimavanserin Group (change from baseline) (ADP patients [2]; 34 mg once daily, subgroup No Prior Anti-psychotic use (n = 162)): −4.15
- NPI-NH PSYCHOSIS SCORE at day 43, Pimavanserin Group (change from baseline) (ADP patients [2]; 34 mg once daily, subgroup Prior Anti-psychotic use (n = 16)): −1.52
- improvement in psychosis, NPI-NH Psychosis score (combined hallucinations and delusions domains), primary endpoint (ADP patients [2]; 34 mg once daily, week 6, all patients, baseline mean 9.52, placebo 1.93 point, p=0.0451): 3.76 point
- improvement in psychosis at day 43 (ADP patients [2]; baseline NPI-NH Psychosis score of 12 or greater and baseline Agitation/Aggression score of 6 or greater, p-value=0.0010): 7.18
- effect on NPI-NH psychosis score (in words) (ADP patients [2]; baseline NPI-NH psychosis score of 12 or greater and baseline Agitation/Aggression score of 6 or greater, p=0.0010): effectively reduced
- improvement in psychosis at day 43 (ADP patients [2]; patients having a baseline NPI-NH Agitation/Aggression score of 6 or greater, p-value=0.0010): 4.41 point
- effect on NPI-NH psychosis score (in words) (ADP patients [2]; patients having a baseline NPI-NH Agitation/Aggression score of 6 or greater, p=0.001): effectively reduced
- aggravating in psychosis at day 43 (ADP patients [2]; patients having a baseline NPI-NH Agitation/Aggression score of less than 6, p-value=NS): 0.42
- improvement in psychosis at day 43 (NPI-NH Psychosis subscale) (ADP patients [2]; patients having a baseline NPI-NH Psychosis score of 12 or greater, p-value=0.0114): 4.43 point
- effect on NPI-NH psychosis score (in words) (ADP patients [2]; patients having a baseline NPI-NH psychosis score of 12 or greater, p=0.0114): effectively reduced
- improvement in psychosis at day 43 (NPI-NH Psychosis subscale) (ADP patients [2]; patients having a baseline NPI-NH psychosis score of less than 12, p-value=NS): 0.42
- improvement in psychosis at day 43 (ADP patients [2]; patients that had anti-psychotic use prior to the baseline measurement on day 0, p-value=NS): 6.53 point
- effect on NPI-NH psychosis score (in words) (ADP patients [2]; patients who had prior anti-psychotic use): effectively reduced
- reduction of mean NPI-NH Psychosis score from baseline (ADP patients [2]; pimavanserin arm, baseline NPI-NH Psychosis score of 12 or greater, baseline 15.30, day 43): 66.3%
- mean NPI-NH Psychosis score at day 43 (ADP patients [2]; pimavanserin arm, baseline NPI-NH Psychosis score of 12 or greater, baseline score 15.30): 5.15
- NPI-NH PSYCHOSIS SCORE at day 43, Effect Size (ADP patients [2]; subgroup Baseline Agitation/Aggression Score <6 (n = 85), post-hoc): 0.122
- NPI-NH PSYCHOSIS SCORE at day 43, Effect Size (ADP patients [2]; subgroup Baseline Agitation/Aggression Score ≥6 (n = 93), post-hoc): −0.778
- NPI-NH PSYCHOSIS SCORE at day 43, Effect Size (ADP patients [2]; subgroup Baseline NPI-NH Psychosis Score <12 (n = 57)): −0.077
- NPI-NH PSYCHOSIS SCORE at day 43, Effect Size (ADP patients [2]; subgroup Baseline NPI-NH Psychosis Score ≥12 & Agitation/Aggression Score ≥6 (n = 38), post-hoc): −1.225
- NPI-NH PSYCHOSIS SCORE at day 43, Effect Size (ADP patients [2]; subgroup Baseline NPI-NH Psychosis score ≥12 (n = 121)): −0.734
- NPI-NH PSYCHOSIS SCORE at day 43, Effect Size (ADP patients [2]; subgroup No Prior Anti-psychotic use (n = 162)): −0.351
- NPI-NH PSYCHOSIS SCORE at day 43, Effect Size (ADP patients [2]; subgroup Prior Anti-psychotic use (n = 16)): −0.905
- NPI-NH PSYCHOSIS SCORE at day 43, Delta (difference between placebo group and pimavanserin group in change from baseline) (ADP patients [2]; subgroup Baseline Agitation/Aggression Score <6 (n = 85), post-hoc, P-Value NS): 0.68
- NPI-NH PSYCHOSIS SCORE at day 43, Delta (difference between placebo group and pimavanserin group in change from baseline) (ADP patients [2]; subgroup Baseline Agitation/Aggression Score ≥6 (n = 93), post-hoc, P-Value 0.0010): −4.41
- NPI-NH PSYCHOSIS SCORE at day 43, Delta (difference between placebo group and pimavanserin group in change from baseline) (ADP patients [2]; subgroup Baseline NPI-NH Psychosis Score <12 (n = 57), P-Value NS): −0.42
- NPI-NH PSYCHOSIS SCORE at day 43, Delta (difference between placebo group and pimavanserin group in change from baseline) (ADP patients [2]; subgroup Baseline NPI-NH Psychosis Score ≥12 & Agitation/Aggression Score ≥6 (n = 38), post-hoc, P-Value 0.0010): −7.18
- NPI-NH PSYCHOSIS SCORE at day 43, Delta (difference between placebo group and pimavanserin group in change from baseline) (ADP patients [2]; subgroup Baseline NPI-NH Psychosis score ≥12 (n = 121), P-Value 0.0114): −4.43
- NPI-NH PSYCHOSIS SCORE at day 43, Delta (difference between placebo group and pimavanserin group in change from baseline) (ADP patients [2]; subgroup No Prior Anti-psychotic use (n = 162), P-Value 0.0374): −1.90
- NPI-NH PSYCHOSIS SCORE at day 43, Delta (difference between placebo group and pimavanserin group in change from baseline) (ADP patients [2]; subgroup Prior Anti-psychotic use (n = 16), P-Value NS): −6.53
- treatment effect in patients with a concomitant Selective Serotonin Reuptake Inhibitor (SSRI) use (ADP patients [2]; subgroup analysis, compared with no concomitant SSRI use): treatment effect larger than those with no concomitant SSRI use
- efficacious effect relative to placebo (ADP patients [2]; worded as an embodiment): about 2 times
